# According to patent publication US20190307754A1, “PDE9 INHIBITORS FOR TREATMENT OF PERIPHERAL DISEASES” (IMARA, INC., priority 2016, published 2019):
# How the values were obtained:
# HbSS-Townes mice = assay: Microvascular stasis and hematology in HbSS-Townes mice; assay type: in vivo
# Description: The ability of Compound P3.1 to reduce vaso-occulsion was assessed in HbSS-Townes transgenic sickle mice after transient hypoxia and re-oxygenation. This study assessed the effects of repeated (10 days) oral dosing of Compound P3.1 and HU on microvascular stasis and other hematological markers of sickle cell disease, after transient hypoxia and re-oxygenation, in Townes transgenic sickle mice, a mouse model of sickle cell disease (Hba^tm1(HBA)Tow Hbb^tm2(HBG1,HBB*)Tow/Hbb^tm3(HBG1,HBB)Tow/J). HbSS-Townes mice were divided into groups of 3 mice and were then dosed orally via drinking water with Compound P3.1 at 10 mg/kg/day, Compound P3.1 at 30 mg/kg/day, HU (100 mg/kg/day), or a combination of Compound P3.1 and HU (at doses of 30 and 100 mg/kg/day, respectively) for 10 days. A final group received water containing 0.08% methylcellulose, the vehicle used to prepare the test items, and served as controls. On Day 7 of treatment, the mice were implanted with dorsal skin-fold chambers (DSFC), and on Day 10 of treatment, 20-23 flowing subcutaneous venules in the DSFC window were selected and mapped. After venule selection and mapping, mice were placed in a chamber and exposed to a hypoxic atmosphere (7% O2/93% N2) for 1 hour, after which they were returned to room air. All of the selected venules were re-examined after 1 and 4 hours of re-oxygenation in room air and the number of static (no flow) venules was counted and expressed as percent stasis. On completion of these measurements, blood was collected for clinical pathology with a focus on hematological measures associated with sickle cell disease.
# [1] = test system: TNF-α activated human endothelial cells; assay: Micro-channel PMN adhesion assay under flow (FIG. 9); assay type: cell-based
# Source text: In this study, the effects of Compound P3.1 on PMN adhesion to TNF-α activated human endothelial cell monolayers under flow conditions are investigated. It has been validated in vitro dynamic assay mimics neutrophil recruitment to endothelial cell monolayers under inflammatory conditions (TNF-α activation). In this assay, both control and sickle PMNs adhere to endothelial cells but to different degrees, reflecting in vivo conditions. The human dermal microvascular endothelial cell line HMEC-1 is used in this approach. The potential inhibitory effect of Compound P3.1 is tested in parallel and compared with the effect of HU and other PDE9 inhibitors.
# In a first step, the effects of 1 uM Compound P3.1 and 10 uM HU were tested by incubating blood samples from healthy volunteers (n=3-6) (i.e., donors or donor cells) with these molecules.
# Adhesion of PMNs from healthy volunteers was assessed under flow conditions, mimicking blood flow, in micro channels (Venaflux, Cellix, Ireland) coated with endothelial cell monolayers cultivated under inflammatory conditions. The adhesion assay was performed with whole fresh blood, previously incubated or not with Compound P3.1, to be closer to the physiological condition of circulation in a person, and to study the interaction between the different blood cells with PMNs.
# [2] = Blood Brain Barrier penetration (brain-to-plasma distribution); assay type: in vivo; conditions: male CD mice, 10 mg/kg subcutaneous
# Description: Male CD mice (20-24 g) were housed pair-wise with free access to food and water for an acclimatization period of 3-7 days before initiation of experiments. Prior to dosing the animals were fasted overnight. During testing, mice were kept in individual cages. The brain-to-plasma distribution was assessed 30 minutes and 2 hours after subcutaneous administration of the test compound at a dose of 10 mg/kg (n=3 at each time point). The dose volume was 10 ml/kg using appropriate vehicle to solubilize each test compound. At the time of sampling, animals were anesthetized with isoflurane and a systemic blood sample collected by cardiac puncture into vacutainers containing sodium heparin as anti-coagulant. The blood was centrifuged at 3500 rpm for 10 minutes at 4° C. to obtain plasma. Following decapitation, brains were dissected out and transferred to pre-weighed vessels followed by tissue weights determination. Plasma and brains were stored at −80° C. until quantitative bioanalysis by LC-MS/MS. Results are expressed as ng/ml for plasma and ng/g for brain samples.
# C57Bl/6J mice = assay: Locomotor activity and contextual fear conditioning in C57Bl/6J mice; assay type: in vivo; conditions: 10 or 30 mg/kg/day, gavage, 5 days
# Description: The exposure of both compounds was also evaluated in the plasma, brain, and eye. […] During the treatment period all animals were assessed for contextual fear conditioning and a subset of 7 animals per group was evaluated for locomotor activity. On Day 5, plasma, brain, and eye tissue were collected 30 minutes after dosing from 3 animals per treated group to measure concentrations of test item.
# [3] = Pharmacokinetics of single oral and IV dose in Sprague Dawley rats; assay type: in vivo
# Description: Blood samples were taken at 2 minutes (IV only), then 8, 15, 30 minutes, and 1, 2, 4, 8, and 24 hours after dosing and analyzed for key PK parameters. In the rats, brain samples were taken at 24 hours and analyzed for Compound P3.1. To evaluate the penetration of Compound P3.1 across the blood-brain barrier (BBB), 10 additional rats received IV Compound P3.1 3 mg/kg and plasma and brain concentrations of Compound P3.1 were determined from 2 animals at 15 minutes, 30 minutes and 1, 2, and 4 hours after dosing.
# CYP2B6 = assay: CYP induction in human hepatocytes, CYP2B6
# in vivo = conditions: rat, 250 mg/kg/day
# Description: Animals were observed daily from the start of the dosing and body weights and food intake were recorded at regular intervals. Blood samples were collected from a subset of animals in each group at 6 time points on Day 7 for TK evaluation.
# [4] = test system: 7 key CYP enzyme isoforms; assay: CYP enzyme inhibition in human liver microsomes; conditions: up through 100 μM
# [5] = Plasma protein binding, monkey; assay type: in vitro ADME; conditions: read-out: mean plasma fraction bound (converted)
# [6] = Compound P3.1 30 mg/kg/day, HU 100 mg/kg/day, or both, 10 days
# [7] = Sprague Dawley rats, 10 mg/kg oral
# [8] = rat, blood, Sprague Dawley rats, 3 mg/kg IV
# [9] = rat, blood, Sprague Dawley rats, 10 mg/kg oral
structure (smiles),measurement,setting,value
"C[C@@H]1CN(Cc2ncccn2)C[C@H]1c1cn2c(C3CCOCC3)ncc2c(=O)[nH]1 (single isomer, unassigned) [Compound P3.1]",microvascular stasis,"HbSS-Townes mice; 10 mg/kg/day, 10 days, 1-hour time point",reduced stasis statistically significantly
same,microvascular stasis,"HbSS-Townes mice; 10 mg/kg/day, 10 days, 4 hours",not at 4 hours
same,microvascular stasis,"HbSS-Townes mice; 30 mg/kg/day Compound P3.1 or 100 mg/kg HU, drinking water, 10 days, 1 and 4 hours post hypoxia",statistically significant reductions in stasis
same,total WBC numbers,"HbSS-Townes mice; Compound P3.1 30 mg/kg/day or HU 100 mg/kg/day, 10 days",reduce total WBC numbers
same,vessel occlusion induced by transient hypoxia and re-oxygenation,"HbSS-Townes mice; Compound P3.1 30 mg/kg/day, HU 100 mg/kg/day, or both",effectively reduced
same,number of HbF positive red cells,HbSS-Townes mice; [6],increase the number of HbF positive red cells
same,proportion of sickled RBCs,HbSS-Townes mice; [6],reduce the proportion of sickled RBCs
same,adhesion of low-binding donor cells,"[1]; 1 uM Compound P3.1, whole blood of healthy volunteers",no effect
same,adhesion of high-binding donor cells,"[1]; 1 uM Compound P3.1 or 10 uM HU, whole blood of healthy volunteers",reduced the adhesion of 3 of 4 high-binding donors
same,Plasma concentration after 30 minutes,[2]; 30 min,30 min.: 1620 ng/mL
same,Plasma concentration after 120 minutes,[2]; 120 min,120 min.: 226 ng/mL
same,Kp at 0.5 h,"[2]; mouse, brain, sc, 30 min, read-out: Brain/Plasma ratio after 30 minutes",0.04
same,Kp at 2 h,"[2]; mouse, brain/plasma, sc, 120 min, read-out: Brain/Plasma ratio after 120 minutes",0.03
same,locomotor activity or memory,C57Bl/6J mice,no effect
same,Cl_obs,"[3]; Sprague Dawley rats, 3 mg/kg IV",16.2 mL/min/kg
same,Flast,[3]; [7],44.6%
same,Vss obs,[3]; [7],44.6 L/kg
same,bioavailability,"[3]; Sprague Dawley, rat, plasma, po, 10 mg/kg, read-out: oral bioavailability Flast",63.4%
same,AUC(0-t),[3]; [8],3110 ng·h/mL
same,C0,[3]; [8],4820 ng/mL
same,MRT,[3]; [8],1.44 h
same,half-life,[3]; [8],2.81 h
same,Vd,"[3]; rat, blood, Sprague Dawley rats, 3 mg/kg IV, read-out: Vss obs",1.65 L/kg
same,AUC(0-t),[3]; [9],4620 ng·h/mL
same,C0,[3]; [9],1110 ng/mL
same,Tmax,[3]; [9],1 h
same,half-life,[3]; [9],3.01 h
same,continuously exposed out to,"[3]; rats, 10 mg/kg oral",8 h
same,induction of CYP2B6,CYP2B6,no potential for induction
same,AUC0-24,"in vivo; male, Crl:WI(Han), po",198000 ng·h/mL
same,Cmax,"in vivo; male, Crl:WI(Han), po",18800 ng/mL
same,AUC(0-t),"in vivo; male, Crl:WI(Han), po, AUC0-24",226000 ng·h/mL
same,Cmax,"in vivo; male, Crl:WI(Han), po, Cmax",16500 ng/mL
same,Cmax and systemic exposure of Compound P3.1 in isolation vs in combination with HU,in vivo,similar
same,direct inhibition of 7 key CYP enzyme isoforms,[4],no potential for direct inhibition
same,fraction unbound,[5],0.814
